Where “and” joins values, the source holds several entries; their conditions need not be identical. Equal values may be shown once.
Key:
[1] = tested on: central and peripheral nervous system; details: in vivo; cited from earlier work
[2] = tested on: HBV DNA replication; test: Effects on HBV DNA replication in 2.2.15 cells in culture (intracellular HBV DNA and HBV virion DNA); type: cell-based, hepatitis B virus; details: ddC 25 μM
[3] = tested on: hematopoietic cells; details: cited from earlier work
[4] = 24 hrs following the 9th day of treatment

For Nc1ccn([C@H]2CC[C@@H](CO)O2)c(=O)n1 [ddC, 2',3'-dideoxycytidine, reference compound], the “toxicity on the central and peripheral nervous system” value [1] is listed as “high toxicity on the central and peripheral nervous system”, the “Intracellular HBV DNA, Mono.” value [2, 4] is listed as 1.1 pg/μg cell DNA and 1.2 pg/μg cell DNA and 0.8 pg/μg cell DNA and 1.0 pg/μg cell DNA and the “Intracellular HBV DNA, RI (Replicating Intermediate)” value [2, 4] is listed as 1 pg/μg cell DNA. The “HBV Virion DNA, Day 0” value ([2]; Day 0, before first dose) was 65 pg/ml culture medium and 70 pg/ml culture medium and 78 pg/ml culture medium and 60 pg/ml culture medium, the “HBV Virion DNA, Day 3” value ([2]; Day 3) was 41 pg/ml culture medium and 33 pg/ml culture medium and 31 pg/ml culture medium and 40 pg/ml culture medium and the “HBV Virion DNA, Day 6” value ([2]; Day 6) was 15 pg/ml culture medium and 13 pg/ml culture medium and 10 pg/ml culture medium and 12 pg/ml culture medium. For the same compound, the “toxicity on hematopoietic cells” value [3] was “toxicity on hematopoietic cells”.

Source: patent publication US5929038A, “Pharmaceutical preparations which inhibit hepatitis B virus (HBV) replication” (Choongwae Pharmaceutical Co., Ltd., priority 1992, dated 1999)
